Patent publication US6638966B2 (University of Iowa Research Foundation, priority 2000, dated 2003)

Assays:
[1] = Anesthetic effect compared with melatonin; details: in vivo
rats [2] = details: rat, in vivo, iv
[3] = Solubility of melatonin in 1-methyl-2-pyrrolidinone/propylene glycol/water solvent; format: physicochemical; details: solvent: 1 volume 1-methyl-2-pyrrolidinone, 1 volume propylene glycol, 2 volumes water
From the text: The volume ratios here expressed are preferred but generally can be within the range of 25% or less by volume of 1-methyl-2-pyrrolidinone.

patients = details: low-level doses sublingually, British Journal of Anesthesia 82(6):875-80(1999); cited from earlier work
rats [4] = assay: Single bolus i.v. injection: time course of indices of anesthesia in rats; format: in vivo, rat; details: for time for which loss of righting reflex and grip strength was maximal: single i.v. bolus: 10 mg/kg propofol; for time for which loss of righting reflex and grip strength was maximal / effect on paw withdrawal threshold / effect on righting reflex and grip strength: 275 mg/kg melatonin; for effect on paw withdrawal threshold / effect on righting reflex and grip strength / time by which loss of righting reflex and grip strength resolved: single i.v. bolus: 20 mg/kg thiopental, 10 mg/kg propofol; for time by which loss of righting reflex and grip strength resolved: 275 mg/kg melatonin (near baseline values)
Experimental: (§1) After the final cumulative dose, measurements of anesthesia end-points were made at fixed intervals for an additional 20 minutes. […] Measurements of anesthesia end-points were made in these rats at fixed intervals for 20 minutes. Righting reflex was scored on a four-point scale (1=immediate/brisk, both feet under the rat; 2=complete, but slower than normal; 3=slow, feet not placed under body; and 4=absent). The threshold pressure (mm Hg) at which the rat withdrew or vocalized after pinch of one hindpaw was measured. For paw pinch, a subminiature, very low profile load cell Omega part number LCKD-1KG, measurement range of 0-1 kg) (OMEGA Engineering, INC., Stamford, Conn.) was used to measure the amount of pressure applied to the rat's paw. The action of compressing the load cell between the faces of the sponge clamp assembly results in a change in impedance within the load cell, and this in turn, was then converted to mm Hg pressure by the monitor. The presence or absence of eyelash reflex was noted on a three-point scale (1=normal, 2=weak; and 3=absent). The strength of grip by the forepaws was determined on a four-point scale (0=absent, 1=weak, 2=moderate and 3=strong).
(§2) Thiopental was purchased from Abbott Laboratories (Northern Chicago, Ill.). Propofol was purchased from Zeneca Pharmaceuticals (Wilmington, Del.). […] Thiopental and propofol were dissolved in saline and Intralipid™ respectively. […] For the bolus injections, the volume of drug injected ranged from 0.6 to 0.75 ml.

male Sprague-Dawley rats = assay: Anesthetic effect of melatonin given through a jugular catheter to rats (Intralipid and cyclodextrin preparations); format: in vivo, rat; details: for anesthetic effect (righting reflex) / anesthetic effect (righting reflex, eyelash reflex, hind paw pressure): 50 mg/ml
Experimental: All experiments were carried out in male Sprague-Dawley rats (300-350 g). Rats were maintained on a 12 hour light/12 hour dark cycle with free access to food and water. All surgical procedures were performed under sterile conditions (skin preparation, sterile filed drape, gloves, mask, etc.). All instruments and materials were ethylene oxide sterilized. Non-fasting adult male Sprague Dawley rats (˜300 gm) were anesthetized with halothane in oxygen and weighed. The hair over the ventral neck and over the back (between the scapulae) was removed with an electric razor. In the supine position the ventral neck was washed with povidone-iodine, followed by a 3-cm skin incision, just left of mid-line. All bleeding points were cauterized. Both the left jugular vein and left common carotid artery were isolated via blunt dissection. The left jugular vein was cannulated with a heparinized (20 U/ml) saline-filled silastic catheter (0.012-in ID, 0.025-in OD) advanced ˜3-cm into the right atrium. The jugular catheter was secured to the vein with 4-0 silk at the point of insertion, as well as at the rostral jugular ligature. After implantation of intravascular catheters, rats were housed in individual stainless steel cages. […] Crystalline Melatonin powder was obtained from Sigma (Sigma Chemical Co. St. Louis, Mo.).

rats [5] = assay: Cumulative i.v. doses: indices of anesthesia in rats (righting reflex, grip strength, eyelash reflex, paw withdrawal threshold); format: in vivo, rat; details: for estimated ED95 (and 95% CI) for loss of righting reflex: cumulative i.v. injection of divided doses; for effect on righting reflex, grip strength and eyelash reflex: three cumulative i.v. doses about 1 min apart: 6.67 mg/kg thiopental, 3.3 mg/kg propofol, 70 mg/kg melatonin
Experimental: as §1, §2

[6] = Rat 1, 315 mg/kg, in 40% cyclodextrin
[7] = Rat 2, 374 mg/kg, in 40% cyclodextrin

COc1ccc2[nH]c(C(F)(F)F)c(CCNC(C)=O)c2c1 [2-trifluoromethylmelatonin]
anesthetic effect relative to melatonin [1]: substantially more active in anesthetic effect than melatonin itself

COc1ccc2[nH]cc(CCNC(C)=O)c2c1 [melatonin, N-acetyl-5-methoxytryptamine]
toxic side effects (rats [2]): without causing toxic side effects | concentration to which melatonin can be dissolved [3]: ≤ 300000 µg/mL | anxiety and sedation before operation (patients): significant decrease in anxiety levels and an increase in levels of sedation before operation | time for which the increase in paw withdrawal threshold persisted (rats [4]; single i.v. bolus 275 mg/kg): at least 20 min | time for which loss of righting reflex and grip strength was maximal (rats [4]): 5 min | effect on paw withdrawal threshold (rats [4]): increased paw withdrawal threshold as compared to vehicle | effect on righting reflex and grip strength (rats [4]): immediate loss of righting reflex and grip strength | time by which loss of righting reflex and grip strength resolved (rats [4]): ≤ 15 min | anesthetic effect (righting reflex) (male Sprague-Dawley rats; Rat 1, 250 mg/kg followed about 1 minute later by 65 mg/kg, Intralipid + Ringer's Lactate): very drugged but did not lose righting reflex | anesthetic effect (righting reflex) (male Sprague-Dawley rats; Rat 1, 315 mg/kg, cyclodextrin 40% + Intralipid): moves slowly but no loss of righting reflex | anesthetic effect (ptosis, eye blink, paw pinch) (male Sprague-Dawley rats; [6]): ptosis, loss of eye blink response and loss of paw pinch response to a pressure of 60 mmHg | time for which the righting reflex was lost (male Sprague-Dawley rats; [6]): 27 min | anesthetic effect (righting reflex, eyelash reflex, hind paw pressure) (male Sprague-Dawley rats; Rat 2, 250 mg/kg, Intralipid + Ringer's Lactate): loss of righting and eyelash reflexes and inability to pull his hind paw in response to pressure applied to it | anesthetic effect (ptosis, eye blink) (male Sprague-Dawley rats; [7]): ptosis and loss of eye blink response | time for which the righting reflex was lost (male Sprague-Dawley rats; [7]): 15 min | paw pinch response (male Sprague-Dawley rats; Rat 2, 374 mg/kg, in 40% cyclodextrin, pressure of 60 mmHg): pulling his paw without vocalization | anesthetic effect (righting reflex) (male Sprague-Dawley rats; Rat 2, 460 mg/kg, cyclodextrin 40% + Intralipid): loss of righting reflex | anesthetic effect (righting reflex, eyelash reflex, hind paw pressure) (male Sprague-Dawley rats; Rat 3, 320 mg/kg, Intralipid + Ringer's Lactate): loss of righting and eyelash reflexes and inability to pull his hind paw in response to pressure applied to it | anesthetic effect (righting reflex, eyelash reflex, hind paw pressure) (male Sprague-Dawley rats; Rat 4, 370 mg/kg, Intralipid + Ringer's Lactate): loss of righting and eyelash reflexes and inability to pull his hind paw in response to pressure applied to it | effect on paw withdrawal threshold (rats [5]; cumulative i.v. doses of 70 mg/kg): dose-dependently increased paw withdrawal threshold | estimated ED95 (and 95% CI) for loss of righting reflex (rats [5]): 312 (205-476) mg/kg | doses at which the increase in paw withdrawal threshold was apparent (rats [5]; i.v.): ≥ 140 mg/kg | effect on righting reflex, grip strength and eyelash reflex (rats [5]): progressive loss of righting reflex and grip strength, but did not appreciably blunt the eyelash reflex

CC(C)c1cccc(C(C)C)c1O [propofol]
time for which loss of righting reflex and grip strength was maximal (rats [4]): 5 min | effect on paw withdrawal threshold (rats [4]): significant increase in paw withdrawal threshold of similar duration | effect on righting reflex and grip strength (rats [4]): immediate loss of righting reflex and grip strength | time by which loss of righting reflex and grip strength resolved (rats [4]): ≤ 10 min | estimated ED95 (and 95% CI) for loss of righting reflex (rats [5]): 14.9 (6.4-34.9) mg/kg | effect on righting reflex, grip strength and eyelash reflex (rats [5]): progressive loss of righting reflex, grip strength and eyelash reflex

CCCC(C)C1(CC)C(=O)NC(=S)NC1=O (stereo not drawn) [thiopental]
time at which loss of righting reflex and grip strength was maximal (rats [4]; single i.v. bolus 20 mg/kg): 1 min | effect on paw withdrawal threshold (rats [4]): not accompanied by a change in paw withdrawal threshold | effect on righting reflex and grip strength (rats [4]): immediate loss of righting reflex and grip strength | time by which loss of righting reflex and grip strength resolved (rats [4]): ≤ 15 min | estimated ED95 (and 95% CI) for loss of righting reflex (rats [5]): 23.8 (15.4-36.7) mg/kg | effect on righting reflex, grip strength and eyelash reflex (rats [5]): progressive loss of righting reflex, grip strength and eyelash reflex
